Here are results for 2 molecules from patent publication US20230323420A1, “PERFUSION MEDIUM” (Boehringer Ingelheim International GmbH, priority 2017, published 2023).

For one series, the system named is CHO cultures. The settings on record: cited from earlier work.
Series [1] relates to CHO DG44 cells expressing a recombinant monoclonal IgG1 antibody. The series can be described thus: High density perfusion culture in bioreactors, 350 μM ferric citrate (Example 3). Format: cell-based, Chinese hamster. The procedure:
A high density perfusion culture of CHO DG44 cells expressing a recombinant monoclonal IgG1 antibody was treated with low iron (Fe) and vitamin A (retinyl acetate) to assess the effect on cell proliferation, and the cell bleed. A bench-scale experiment was performed essentially as described above for Example 2. During the growth phase (d0-d10 post-inoculation) there was no cell bleed, allowing the viable cell density (VCD) to reach desired level. On day 8, ferric citrate (Sigma-Aldrich; CAS 3522-50-7) was added to the perfusion media at a concentration of 350 μM. Once optimal cell density was reached on day 10, cell bleed was initiated to maintain constant VCD (steady state). The calculation governing the cell bleed rate was based on maintaining the Incyte biomass capacitance probe value (Hamilton company) which corresponded to the target VCD.
On day 25 day, retinyl acetate (Sigma-Aldrich, CAS 127-47-9) was introduced to one of the bioreactors, with one bioreactor acting as control with no retinyl acetate. Retinyl acetate was dissolved in absolute ethanol and sterile-filtered with a 0.2 μm filter to make a sterile stock solution of 152 mM before addition to media bags for final concentrations of 100 μM retinyl acetate. Retinyl acetate was then added to the bioreactor on day 25. The bag of new treatment media was attached to the media inlet line of the bioreactors and in order to ensure an instantaneous achievement of target retinyl acetate concentration within the vessels (as opposed to the gradual increase which would occur via introduction through the perfusion medium), a bolus addition of 1.3 mL retinyl acetate stock solution was added directly to the treatment bioreactor via injection through a sterile addition line. Samples were taken and analyzed as explained for Example 2.

Series [2] concerns CHO-DG44 cells expressing a recombinant monoclonal IgG1 antibody. Briefly: High density perfusion culture in 2 L bioreactors, 1.6 mM ferric citrate (Example 2). The settings on record: for decrease of cell bleed rate: 1.6 mM ferric citrate background media, over 4 days (FIG. 5B). Format: cell-based, Chinese hamster. As to the method:
A high density perfusion culture of CHO-DG44 cells expressing a recombinant monoclonal IgG1 antibody was treated with high iron (Fe) and vitamin A (retinyl acetate) to assess the effect on cell proliferation, and by extension, the cell bleed. A bench-scale experiment was performed in three 2 L perfusion bioreactors with 0.2 μm PES hollow fibers (Spectrum Labs) on alternating tangential flow (ATF) at 0.8 L/min flow rate. Bioreactors were maintained at: 37° C., 60% dissolved oxygen, 348 RPM agitation, and a target pH of 7.0 (pH target was not always achieved). A CHO DG44 cell line expressing a monoclonal antibody was inoculated into the bioreactors at approximately 1e6 cells/mL in proprietary chemically defined, serum-free inoculation medium at a 1:4 dilution of conditioned to fresh inoculation media. This culture was grown in batch mode (no flow in or out) for 2 days, at which time perfusion was started with BI's perfusion media (manufactured by SAFC). […] During the growth phase (d0-d10 post-inoculation) there was no cell bleed, allowing the viable cell density (VCD) to reach desired level. On day 8, ferric citrate (Sigma-Aldrich; CAS 3522-50-7) was added to the perfusion medium at a concentration of 1.6 mM, targeting a pH of 6.9. Once optimal cell density was reached on day 10, cell bleed was initiated to maintain constant VCD (steady state). The calculation governing the cell bleed rate was based on maintaining the Incyte biomass capacitance probe value (Hamilton) which corresponded to the target VCD.
After steady state was established for several days, retinyl acetate (Sigma-Aldrich, CAS 127-47-9) was introduced to two of the bioreactors, with one bioreactor acting as control with no retinyl acetate (Table 4). Retinyl acetate was dissolved in absolute ethanol and sterile-filtered with a 0.2 μm filter to make a sterile stock solution of 152 mM before addition to media bags for final concentrations of 50 μM, 100 μM, 150 μM, or 200 μM retinyl acetate (in four respective bags). Each treatment bioreactor then received retinyl acetate at a first concentration between day 15 and 20 (50 μM or 100 μM) and at a second concentration between days 20-24 (150 or 200 μM) as shown in Table 4. On day 15 and 20 for each treatment, the bag of new treatment media was attached to the media inlet line of the bioreactors. […]
Samples were taken near-daily for: VCD and viability (Vi-Cell, Beckman-Coulter), osmolality (Advanced Instrument Inc), pH, CO2, and O2 (RapidLab 1240 BGA, Siemens), and metabolite readings (Cedex BioHT, Roche). […]

Series [3] has as its system Chinese hamster ovary (CHO) DG44 cells expressing a recombinant monoclonal IgG1 antibody. Briefly: Deep well plate model of perfusion (small scale culture): viable cell density, viability, titer. In kind it is cell-based. As to the method: Axygen 24 well pre-sterilized deep-well plates (Neta Scientific Inc, Hainesport, NJ) were used as a scale-down model of perfusion. A starting cell density of 20×10^6 cells/mL (3 mL per well) was targeted to simulate the high cell density growth phase of perfusion. Chinese hamster ovary (CHO) DG44 cells expressing a recombinant monoclonal IgG1 antibody were grown in proprietary chemically defined, serum-free perfusion media at 33° C. with 5% CO2, 80% humidity, and 200 rpm shaking speed in an incubator with a 5.0 cm orbit diameter for 4 or 8 days. A 0.1 mL sample was taken for cell count daily prior to media exchange. Medium exchanges were performed daily by centrifuging the plate at 1200 rpm for 5 minutes, removing 2 mL supernatant, and resuspending cells in 2.1 mL fresh, pre-warmed media at 37° C. (in early days, this equates to a ⅔ volume exchange, whereas in later days the cell pellet grows such that 2 mL is nearly the entire liquid volume, equating to a 1 VVD exchange). Supernatant was saved to perform process analytics.
Retinyl acetate was tested in concentrations ranging from 5 μM to 600 μM in proprietary chemically defined, serum-free perfusion medium with 230 μM or 3.1 mM ferric citrate. A 152 mM stock solution of retinyl acetate was prepared by dissolving 50 mg/mL retinyl acetate powder to prepare a 152 mM stock (Sigma-Aldrich; CAS 127-47-9) in absolute ethanol, or 75 mg/mL retinyl acetate for 228 mM stock, for each experimental run; after thorough mixing, the solutions were sterile-filtered with 0.22 μm Steriflips (EMD Millipore). This stock was diluted down further with perfusion medium to provide a working stock. Media aliquot concentrations were 30% higher than the targeted final concentration in each treatment to compensate for residual media left in the well and cell pellet volume. The media were prepared in proprietary chemically defined, serum-free media (either 230 μM or 3.1 mM Fe background) as shown in Table 2. Control condition had no retinyl acetate supplement; ethanol control added the solvent with no retinyl acetate at the level equivalent to the greatest amount for each experiment. These media aliquots were used in the daily media exchanges as described above.
Viability and viable cell density were measured by Vi-CELL Cell Counter using the Trypan blue dye exclusion method (Beckman Coulter Life Sciences, Indianapolis, IN). Titer, metabolites, and lactate dehydrogenase (LDH) levels were measured using a Cedex BioHT (Roche Diagnostics GmbH, Mannheim, Germany). These titer measurements had been previously verified to be in agreement with in house HPLC Protein A methods. Osmolality was measured with a 2020 Multi-Sample Micro Osmometer (Advanced Instruments, Inc, Norwood, MA) based on freezing point depression.
A small scale cell culture using CHO DG44 cells expressing a recombinant monoclonal IgG1 antibody was treated with ferric citrate and retinyl acetate at different concentrations to assess the effect on cell viability, essentially as described for the small scale culture in Example 1.

For series [4], the system named is Chinese hamster ovary (CHO) DG44 cells. Briefly: Cell cycle analysis of deep well culture (propidium iodide, flow cytometry). Format: cell-based. To be noted: 400 μM retinyl acetate, 3.1 mM ferric citrate, cultivation for 7 days; control cells 62.6%. As to the method:
Cell cycle analysis was performed on days 1 and 7 of deep well culture. Cells were grown in medium containing 3.1 mM ferric citrate and 400 μM retinyl acetate or control medium and fixed on days 1 and 7 by a wash in cold PBS before suspension in 70% ethanol. Cells were stored at −20° C. until analysis. 1e5 cells per sample were stained with propidium iodide with RNase (BD Biosciences) for DNA content and analyzed by flow cytometry on a Guava easyCyte flow cytometer (EMD Millipore).
Background: Flow cytometry measures light scatter and fluorescence of single cells or particles in a stream.

Series [5] deals with Chinese hamster ovary (CHO) DG44 cells expressing a recombinant monoclonal IgG1 antibody. The series can be described thus: Deep well plate model of perfusion (small scale culture): viable cell density, viability, titer. In kind it is cell-based. The source holds these as a separate data set.
Another series relates to CHO-DG44 cells. The series can be described thus: Cell cycle analysis of perfusion bioreactor culture (Example 2). In kind it is cell-based, Chinese hamster. The settings on record: 150 μM and 200 μM retinyl acetate, 1.6 mM ferric citrate, compared to control, data not shown. The procedure: Samples were taken near-daily for: VCD and viability (Vi-Cell, Beckman-Coulter), osmolality (Advanced Instrument Inc), pH, CO2, and O2 (RapidLab 1240 BGA, Siemens), and metabolite readings (Cedex BioHT, Roche). DeltaV was used to control and Finesse TruBio software was used to record and monitor cell bleed, permeate, and media pump rates. Cell samples were taken throughout the experiment and stored at −20° C. in 70% EtOH after treatment with Accumax (Innovative Cell Technologies) for later cell cycle analysis using propidium iodide stain with RNase (BD Biosciences) on a Guava easyCyte flow cytometer (EMD Millipore).

Where [6] appears, read: 100 μM retinyl acetate, 350 μM ferric citrate, days 25 to 29 (FIG. 7).

Regarding `CC1=C(/C=C/C(C)=C/C=C/C(C)=C/CO)C(C)(C)CCC1` [retinol], the cytotoxicity entry with CHO cultures (higher retinol concentrations (above 10 to 50 μM)) is given as “cytotoxic”. Moreover, the “growth and protein synthesis” value with CHO cultures (retinol 10 to 50 μM) was “inhibitory effect on growth and protein synthesis”.
In the case of `CC(=O)OC/C=C(C)/C=C/C=C(C)/C=C/C1=C(C)CCCC1(C)C` [retinyl acetate], the cell bleed entry in series [1] (setting [6]) is on record as “markedly decreased”. Further, the specific growth rate entry in series [1] (setting [6]) was “markedly decreased”; in series [5] (350 μM ferric citrate and 200 μM retinyl acetate, data not shown), “decrease in specific growth rate”. In addition, the viability entry in series [1] (100 μM retinyl acetate, 350 μM ferric citrate, versus 350 μM ferric citrate alone (FIG. 6)) is recorded as “same high viability”; in series [2] (50 μM to 200 μM retinyl acetate, 1.6 mM ferric citrate (FIG. 4)), “not affected”; in series [3] (same retinyl acetate concentrations (200 μM), 3.1 mM ferric citrate (FIG. 8)), “unaffected”; in series [5] (Chinese hamster, 5 days, 200 μM), “negative effect on viability after 5 days”. Moreover, the “reduction of cell bleed rate” value in series [1] (100 μM vitamin A, 350 μM ferric citrate background media, over 5 days (FIG. 7A)) was “approximately 50%”. In series [2] (50 μM or 100 μM retinyl acetate, 1.6 mM ferric citrate, days 15 to 20, compared to control (FIG. 5A)), the bleed flow rate entry is given as “reduced in a dose-dependent manner”. For the same molecule, the “decrease of cell bleed rate” value in series [2] (150 μM vitamin A) was “approximately 45%”; in series [2] (200 μM vitamin A), “roughly 70%”. Besides, the viable cell density entry in series [3] (5 μM to 20 μM retinyl acetate, 3.1 mM ferric citrate (FIG. 1A)) is reported as “reduced the viable cell density in a dose-dependent manner”; in series [3] (40 μM to 100 μM retinyl acetate, 3.1 mM ferric citrate (FIG. 2A)), “reduced the viable cell density in a dose-dependent manner”; in series [3] (600 μM retinyl acetate, 3.1 mM ferric citrate (FIG. 3A)), “sharply declined from about day 2”. Besides, the cell proliferation entry in series [3] (60 μM to 400 μM retinyl acetate, 3.1 mM ferric citrate, small scale studies) is recorded as “inhibit cell proliferation”. Also, the “growth / viable cell density” value in series [3] (200 μM and 400 μM retinyl acetate, 3.1 mM ferric citrate (FIG. 3A)) was “further inhibited growth resulting in a lower viable cell density”. In addition, the “effect on viable cell density” value in series [3] (200-400 μM retinyl acetate, 230 μM ferric citrate, data not shown) is listed as “present, but less pronounced”. In series [3] (low ferric citrate (230 μM) versus high ferric citrate (3.1 mM), same retinyl acetate level), the “decrease in growth rate” value is on record as “less pronounced in low ferric citrate”. The “cell specific productivity (qp)” value in series [3] (retinyl acetate with 3.1 mM ferric citrate, data not shown) is listed as “unaffected”. For the same molecule, the “cells in the G0/G1 phase” value in series [4] is listed as 86%. Moreover, in series [5] (2 μM retinyl acetate, data not shown), the “SGR (specific growth rate)” value was “no effect on SGR was observed”. Also, the “cell percentage in G0/G1 phase” value in the series on CHO-DG44 cells is “increase in cell percentage in G0/G1 phase”.
